Experimental data published in patent publication US20260365647A1, “AKT1 MODULATORS” (Alterome Therapeutics, Inc., priority 2022, published 2026).

Target: T1, AKT1-E17K (Homo sapiens, UniProt P31749, E17K)
T1 construct: host or cells: HEK-293 (ATCC CRL-1573)
Experiment: NanoBRET Target Engagement (TE) Assay
Type: cell-based
From the text: The NanoBRET™ Target Engagement (TE) Intracellular Kinase Assays are based on the NanoBRET™ System (Promega Corporation), an energy transfer technique designed to measure molecular proximity in living cells. The NanoBRET™ TE Assays measure the apparent affinity of test compounds by competitive displacement of the NanoBRET™ tracer compound, which is a cell permeable molecule engineered to be reversibly bound to a NanoLuc® luciferase-kinase fusion expressed in cells. For compound screening, when a test compound binds to the selected kinase, the BRET signal is attenuated. […] All cells were evaluated for viability prior to transfection and optimization of the transfection was done prior to experimentation. […] Following transfection, cells were washed and resuspended in Opti-MEM. NanoBRET assays were performed in white, 384-well plates (Corning) at a density of […]. All example compounds were prepared as concentrated stock solutions in DMSO (Sigma-Aldrich). Compounds are dissolved in DMSO to make 10 mM stock solution. […] A Labcyte ECHO 550 compound dispenser was used to facilitate compound transfer directly to cells. Cells were equilibrated for 2 hr with energy transfer probes and example compound prior to BRET measurements. […] For target engagement analysis, the energy transfer probes were added to the cells at concentrations optimized for the target in question (AKT E17K). Following compound incubation, NanoBRET NanoGlo Substrate (Promega Cat #N157D) and Extracellular Nanoluc Inhibitor (Promega Cat #N235C) was added according to the manufacturer's recommended protocol, and luminescence was measured on Envision Reader (Perkin Elmer) Multimode Luminometer equipped with 450 nmBPfilter (donor) and 600 nmLPfilter (acceptor), using 0.5 s integration time. Milli-BRET units (mBU) are calculated by multiplying the raw BRET values by 1000. Apparent tracer affinity values (EC50) were determined using the sigmoidal dose-response (variable slope). Competitive displacement data were then plotted and data were fit to determine the EC50 value for each example compound.

T1 sequence (P31749 whole entry E17K): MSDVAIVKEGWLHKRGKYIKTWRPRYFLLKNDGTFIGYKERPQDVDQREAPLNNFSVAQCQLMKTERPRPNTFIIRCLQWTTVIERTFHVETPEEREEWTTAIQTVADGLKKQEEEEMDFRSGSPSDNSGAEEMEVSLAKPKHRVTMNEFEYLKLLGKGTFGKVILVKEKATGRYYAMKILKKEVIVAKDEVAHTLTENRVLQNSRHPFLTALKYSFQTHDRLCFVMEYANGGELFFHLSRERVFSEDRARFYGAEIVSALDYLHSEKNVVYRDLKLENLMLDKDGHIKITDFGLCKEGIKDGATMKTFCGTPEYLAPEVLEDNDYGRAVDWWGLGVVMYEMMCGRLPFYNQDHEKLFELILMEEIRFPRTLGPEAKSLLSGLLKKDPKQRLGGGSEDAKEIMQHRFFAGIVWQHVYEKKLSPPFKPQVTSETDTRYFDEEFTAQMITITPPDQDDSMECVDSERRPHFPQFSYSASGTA

Structure (SMILES) | IC50 [nM]
N#Cc1ccc(-c2ccc3nc(-c4cccnc4N)n(-c4ccc(CN5CCN(C(=O)c6ccc(O)c(C=O)c6)CC5)cc4)c3n2)cc1 [Example 38, 4-(2-(2-Aminopyridin-3-yl)-3-(4-((4-(3-formyl-4-hydroxybenzoyl)piperazin-1-yl)methyl)phenyl)-3H-imidazo[4,5-b]pyridin-5-yl)benzonitrile] | 60 to 600
Nc1ncccc1-c1nc2ccc(-c3ccccc3)nc2n1-c1ccc(CN2CC3CCC2CN3C(=O)c2ccc(O)c(C=O)c2)cc1 (stereo not shown) [Example 126, 5-(5-(4-(2-(2-Aminopyridin-3-yl)-5-phenyl-3H-imidazo[4,5-b]pyridin-3-yl)benzyl)-2,5-diazabicyclo[2.2.2]octane-2-carbonyl)-2-hydroxybenzaldehyde] | 60 to 600
Nc1ncccc1-c1nc2ccc(-c3ccccc3)nc2n1-c1ccc(CN2CC3(C2)CN(C(=O)c2ccc(C=O)c(O)c2)C3)cc1 [Example 66, 4-(6-(4-(2-(2-Aminopyridin-3-yl)-5-phenyl-3H-imidazo[4,5-b]pyridin-3-yl)benzyl)-2,6-diazaspiro[3.3]heptane-2-carbonyl)-2-hydroxybenzaldehyde] | 60 to 600
Nc1ncccc1-c1nc2ccc(-c3cccc(F)c3)nc2n1-c1ccc(CN2CCN(C(=O)c3ccc(O)c(C=O)c3)CC2)cc1 [Example 40, 5-(4-(4-(2-(2-Aminopyridin-3-yl)-5-(3-fluorophenyl)-3H-imidazo[4,5-b]pyridin-3-yl)benzyl)piperazine-1-carbonyl)-2-hydroxybenzaldehyde] | 60 to 600
Nc1ncccc1-c1nc2ccc(-c3ccc(Cl)cc3)nc2n1-c1ccc(CN2CCN(C(=O)c3ccc(O)c(C=O)c3)CC2)cc1 [Example 147, 5-(4-(4-(2-(2-aminopyridin-3-yl)-5-(4-chlorophenyl)-3H-imidazo[4,5-b]pyridin-3-yl)benzyl)piperazine-1-carbonyl)-2-hydroxybenzaldehyde] | > 600
Nc1ncccc1-c1nc2ccc(-c3ccccc3)nc2n1-c1ccc(CN2CCC(Nc3cccc(C=O)c3O)CC2)cc1 [Example 50, 3-((I-(4-(2-(2-Aminopyridin-3-yl)-5-phenyl-3H-imidazo[4,5-b]pyridin-3-yl)benzyl)piperidin-4-yl)amino)-2-hydroxybenzaldehyde] | 15 to 60
CN(Cc1ccc(-n2c(-c3cccnc3N)nc3ccc(-c4ccccc4)nc32)cc1)c1ccc(O)c(C=O)c1 [Example 18, 5-((4-(2-(2-Aminopyridin-3-yl)-5-phenyl-3H-imidazo[4,5-b]pyridin-3-yl)benzyl)(methyl)amino)-2-hydroxybenzaldehyde] | > 600
Nc1ncccc1-c1nc2cccnc2n1-c1ccc(CN2CCN(c3ccc(C=O)c(O)c3)CC2)cc1 [Example 16, 4-(4-(4-(2-(2-Aminopyridin-3-yl)-3H-imidazo[4,5-b]pyridin-3-yl)benzyl)piperazin-1-yl)-2-hydroxybenzaldehyde] | 60 to 600
N#Cc1cccc(-c2ccc3nc(-c4cccnc4N)n(-c4ccc(CN5CCN(C(=O)c6ccc(O)c(C=O)c6)CC5)cc4)c3n2)c1 [Example 34, 3-(2-(2-Aminopyridin-3-yl)-3-(4-((4-(3-formyl-4-hydroxybenzoyl)piperazin-1-yl)methyl)phenyl)-3H-imidazo[4,5-b]pyridin-5-yl)benzonitrile] | 60 to 600
C[C@H](NC(=O)c1ccc(O)c(C=O)c1)c1ccc(-n2c(-c3cccnc3N)nc3ccc(-c4ccccc4)nc32)cc1 [Example 140, (S)—N-(1-(4-(2-(2-Aminopyridin-3-yl)-5-phenyl-3H-imidazo[4,5-b]pyridin-3-yl)phenyl)ethyl)-3-formyl-4-hydroxybenzamide] | 15 to 60
CN(C(=O)c1ccc(O)c(C=O)c1)C1CCN(Cc2ccc(-n3c(-c4cccnc4N)nc4ccc(-c5ccccc5)nc43)cc2)CC1 [Example 55, N-(1-(4-(2-(2-Aminopyridin-3-yl)-5-phenyl-3H-imidazo[4,5-b]pyridin-3-yl)benzyl)piperidin-4-yl)-3-formyl-4-hydroxy-N-methylbenzamide] | 15 to 60
Nc1ncccc1-c1nc2ccc(-c3ccccc3)nc2n1-c1ccc(COc2cccc(O)c2C=O)cc1 [Example 137, 2-((4-(2-(2-Aminopyridin-3-yl)-5-phenyl-3H-imidazo[4,5-b]pyridin-3-yl)benzyl)oxy)-6-hydroxybenzaldehyde] | > 600
Nc1ncccc1-c1nc2ccc(N3CCOCC3)nc2n1-c1ccc(CN2CCN(c3ccc(C=O)c(O)c3)CC2)cc1 [Example 31, 4-(4-(4-(2-(2-Aminopyridin-3-yl)-5-morpholino-3H-imidazo[4,5-b]pyridin-3-yl)benzyl)piperazin-1-yl)-2-hydroxybenzaldehyde] | 60 to 600

Now from value to compound:

IC50 [nM] | Structure (SMILES)
60 to 600 | C[C@@H]1CN(Cc2ccc(-n3c(-c4cccnc4N)nc4ccc(-c5ccccc5)nc43)cc2)CCN1c1ccc(C=O)c(O)c1 [Example 104, (R)-4-(4-(4-(2-(2-Aminopyridin-3-yl)-5-phenyl-3H-imidazo[4,5-b]pyridin-3-yl)benzyl)-2-methylpiperazin-1-yl)-2-hydroxybenzaldehyde]
> 600 | Nc1ncccc1-c1nc2ccc(-c3ccc(Cl)cc3)nc2n1-c1ccc(CN2CCN(c3ccc(C=O)c(O)c3)CC2)cc1 [Example 146, 4-(4-(4-(2-(2-aminopyridin-3-yl)-5-(4-chlorophenyl)-3H-imidazo[4,5-b]pyridin-3-yl)benzyl)piperazin-1-yl)-2-hydroxybenzaldehyde]
60 to 600 | Nc1ncccc1-c1nc2ccc(-c3ccccc3)nc2n1-c1ccc(CN2CC3(C2)CN(c2ccc(O)c(C=O)c2)C3)cc1 [Example 91, 5-(6-(4-(2-(2-Aminopyridin-3-yl)-5-phenyl-3H-imidazo[4,5-b]pyridin-3-yl)benzyl)-2,6-diazaspiro[3.3]heptan-2-yl)-2-hydroxybenzaldehyde]
60 to 600 | Nc1ncccc1-c1nc2ccc(-c3ccccc3)nc2n1-c1ccc(CN2CCC3(C2)CN(C(=O)c2ccc(C=O)c(O)c2)C3)cc1 [Example 153, 4-(6-(4-(2-(2-aminopyridin-3-yl)-5-phenyl-3H-imidazo[4,5-b]pyridin-3-yl)benzyl)-2,6-diazaspiro[3.4]octane-2-carbonyl)-2-hydroxybenzaldehyde]
60 to 600 | Nc1ncccc1-c1nc2ccc(-c3ccccc3)nc2n1-c1ccc(CN2CCCC(NC(=O)c3ccc(C=O)c(O)c3)CC2)cc1 (stereo not shown) [Example 116, N-(1-(4-(2-(2-aminopyridin-3-yl)-5-phenyl-3H-imidazo[4,5-b]pyridin-3-yl)benzyl)azepan-4-yl)-4-formyl-3-hydroxybenzamide]
60 to 600 | Nc1ncccc1-c1nc2ccc(-c3ccccc3)nc2n1-c1ccc(CN2CC3(CCN(C(=O)c4ccc(C=O)c(O)c4)CC3)C2)cc1 [Example 96, 4-(2-(4-(2-(2-Aminopyridin-3-yl)-5-phenyl-3H-imidazo[4,5-b]pyridin-3-yl)benzyl)-2,7-diazaspiro[3.5]nonane-7-carbonyl)-2-hydroxybenzaldehyde]
60 to 600 | Nc1ncccc1-c1nc2ccc(-c3ccccc3)nc2n1-c1ccc(CN2CC3CCC2CN3c2ccc(C=O)c(O)c2)cc1 (stereo not shown) [Example 127, 4-(5-(4-(2-(2-Aminopyridin-3-yl)-5-phenyl-3H-imidazo[4,5-b]pyridin-3-yl)benzyl)-2,5-diazabicyclo[2.2.2]octan-2-yl)-2-hydroxybenzaldehyde]
60 to 600 | Nc1ncccc1-c1nc2ccc(-c3ccccc3)nc2n1-c1ccc(CN2CCC3(CC2)CCN(C(=O)c2ccc(C=O)c(O)c2)CC3)cc1 [Example 152, 4-(9-(4-(2-(2-aminopyridin-3-yl)-5-phenyl-3H-imidazo[4,5-b]pyridin-3-yl)benzyl)-3,9-diazaspiro[5.5]undecane-3-carbonyl)-2-hydroxybenzaldehyde]
15 to 60 | Nc1ncccc1-c1nc2ccc(-c3ccccc3)nc2n1-c1ccc(CN2CCN(c3ccc(C=O)c(O)c3)CC2)cc1 [Example 9, 4-(4-(4-(2-(2-Aminopyridin-3-yl)-5-phenyl-3H-imidazo[4,5-b]pyridin-3-yl)benzyl)piperazin-1-yl)-2-hydroxybenzaldehyde]
60 to 600 | C=Cc1cc(C=O)c(O)cc1N1CCN(Cc2ccc(-n3c(-c4cccnc4N)nc4ccc(-c5ccccc5)nc43)cc2)CC1 [Example 28, 4-(4-(4-(2-(2-Aminopyridin-3-yl)-5-phenyl-3H-imidazo[4,5-b]pyridin-3-yl)benzyl)piperazin-1-yl)-2-hydroxy-5-vinylbenzaldehyde]
60 to 600 | Nc1ncccc1-c1nc2ccc(-c3ccccc3)nc2n1-c1ccc(CN2CCC3(CCCN(c4ccc(C=O)c(O)c4)C3)C2)cc1 (stereo not shown) [Example 88, 4-(2-(4-(2-(2-Aminopyridin-3-yl)-5-phenyl-3H-imidazo[4,5-b]pyridin-3-yl)benzyl)-2,7-diazaspiro[4.5]decan-7-yl)-2-hydroxybenzaldehyde]
15 to 60 | Nc1ncccc1-c1nc2ccc(-c3ccccc3)nc2n1-c1ccc(CN2CCCN(c3ccc(C=O)c(O)c3)CC2)cc1 [Example 120, 4-(4-(4-(2-(2-Aminopyridin-3-yl)-5-phenyl-3H-imidazo[4,5-b]pyridin-3-yl)benzyl)-1,4-diazepan-1-yl)-2-hydroxybenzaldehyde]
